# Assay results reported in US20230113037A1 (Bayer Aktiengesellschaft, priority 2019, published 2023).
# Read-outs that look alike come from different tables or passages of the source.
# Tests used:
# AHR [1] = target: T1, AHR (Mus musculus, UniProt P30561); assay: In vitro assay 3: antagonism in mouse cell line (AHR transactivation, firefly luciferase reporter, kynurenic acid prestimulated); format: cell-based
# T1 sequence (P30561 1-848 P471L/N533S/M589L): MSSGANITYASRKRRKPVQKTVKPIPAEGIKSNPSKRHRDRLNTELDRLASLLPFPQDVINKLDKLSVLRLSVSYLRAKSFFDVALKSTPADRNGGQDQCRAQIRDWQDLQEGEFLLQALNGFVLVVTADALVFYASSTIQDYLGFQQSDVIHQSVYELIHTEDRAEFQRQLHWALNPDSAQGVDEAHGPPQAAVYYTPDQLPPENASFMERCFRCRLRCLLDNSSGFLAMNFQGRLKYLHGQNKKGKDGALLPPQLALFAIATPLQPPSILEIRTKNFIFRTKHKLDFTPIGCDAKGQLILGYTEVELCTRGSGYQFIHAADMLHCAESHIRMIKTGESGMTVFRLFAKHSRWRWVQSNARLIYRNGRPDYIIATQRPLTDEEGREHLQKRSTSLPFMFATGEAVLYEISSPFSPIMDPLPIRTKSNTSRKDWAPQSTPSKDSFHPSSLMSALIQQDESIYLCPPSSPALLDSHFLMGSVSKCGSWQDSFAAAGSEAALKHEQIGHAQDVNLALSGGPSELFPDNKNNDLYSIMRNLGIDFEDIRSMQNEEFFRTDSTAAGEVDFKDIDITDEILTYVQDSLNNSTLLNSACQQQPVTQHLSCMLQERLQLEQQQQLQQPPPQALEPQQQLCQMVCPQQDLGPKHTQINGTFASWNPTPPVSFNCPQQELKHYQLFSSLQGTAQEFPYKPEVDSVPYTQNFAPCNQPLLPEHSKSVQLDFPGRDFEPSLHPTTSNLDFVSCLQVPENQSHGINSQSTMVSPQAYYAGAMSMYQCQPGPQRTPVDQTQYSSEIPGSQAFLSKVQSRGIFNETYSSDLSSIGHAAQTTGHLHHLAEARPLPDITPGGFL
# Procedure, shortened: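 Luminescence from an AHR-dependent DRE-luciferase reporter, stably integrated in mouse cells, quantifies blockade of kynurenic acid-driven activation. Unstimulated cells mark maximal inhibition; normalization uses both control types, and multiply tested compounds carry mean or median values.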
# AHR [2] = target: T2, AHR (Homo sapiens, UniProt P35869); assay: In vitro assay 1: antagonism in human cell line (AHR transactivation, firefly luciferase reporter, kynurenic acid prestimulated); format: cell-based; details: AHR Antagonism Human IC50 [M]
# T2 construct: U87 MG glioblastoma cells (ATCC #HTB-14) endogenously expressing AHR; endogenous in cells; host or cells: U87 MG glioblastoma cells (ATCC #HTB-14)
# T2 sequence (P35869 11-848): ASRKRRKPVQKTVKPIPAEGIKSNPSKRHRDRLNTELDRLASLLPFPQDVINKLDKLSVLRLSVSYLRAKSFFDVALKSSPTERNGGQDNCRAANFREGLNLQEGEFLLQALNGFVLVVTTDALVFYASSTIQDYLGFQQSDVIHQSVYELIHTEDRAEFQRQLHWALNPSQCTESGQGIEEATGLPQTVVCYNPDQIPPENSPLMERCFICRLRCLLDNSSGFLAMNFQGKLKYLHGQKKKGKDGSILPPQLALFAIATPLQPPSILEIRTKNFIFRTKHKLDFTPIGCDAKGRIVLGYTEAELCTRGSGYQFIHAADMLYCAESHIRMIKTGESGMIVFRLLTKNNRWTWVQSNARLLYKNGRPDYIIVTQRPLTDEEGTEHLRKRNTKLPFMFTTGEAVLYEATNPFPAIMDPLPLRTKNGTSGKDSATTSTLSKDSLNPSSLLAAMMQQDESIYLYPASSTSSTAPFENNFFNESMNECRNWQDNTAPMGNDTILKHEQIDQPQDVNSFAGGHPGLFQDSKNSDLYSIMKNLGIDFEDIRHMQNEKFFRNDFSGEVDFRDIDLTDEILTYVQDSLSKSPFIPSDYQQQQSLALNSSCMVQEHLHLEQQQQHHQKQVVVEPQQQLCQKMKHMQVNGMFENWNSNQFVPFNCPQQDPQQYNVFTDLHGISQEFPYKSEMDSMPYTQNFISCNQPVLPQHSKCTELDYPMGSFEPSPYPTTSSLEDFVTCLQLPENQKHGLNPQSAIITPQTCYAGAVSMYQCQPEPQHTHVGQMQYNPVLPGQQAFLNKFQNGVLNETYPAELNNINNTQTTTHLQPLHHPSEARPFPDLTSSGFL
# Procedure, shortened: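 Antagonism is measured against kynurenic acid prestimulation in U87 MG glioblastoma cells carrying stable DRE-luciferase and Renilla reporters. Positive inhibition control: 150 μM kynurenic acid with 5 μM staurosporine. Values are normalized to controls; repeats are averaged or given as medians.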
# [3] = mouse Hepa 1c1c7 cells, 200 μM kynurenic acid, 20 hours, read-out: AHR Antagonism Mouse IC50
# [4] = read-out: AHR Antagonism Mouse IC50, mouse Hepa 1c1c7 cells, 200 μM kynurenic acid, 20 hours
Compound,IC50 (AHR [1]; [3]) [nM],IC50 (AHR [2]) [M],IC50 (AHR [1]; [4]) [nM]
"Cc1nn(C2CC2)c(C)c1-c1nc2c3cccc(C(F)(F)F)c3nc(N[C@@H]3CCCCNC3=O)n2n1 [Example 745, (3R)-3-{[2-(1-cyclopropyl-3,5-dimethyl-1H-pyrazol-4-yl)-7-(trifluoromethyl)[1,2,4]triazolo[1,5-c]quinazolin-5-yl]amino}azepan-2-one]",1.14,4.41e-09,–
"Cc1n[nH]cc1-c1nc2c3cccc(C(F)(F)F)c3nc(N[C@@H]3CCCCNC3=O)n2n1 [Example 746, (3R)-3-{[2-(3-methyl-1H-pyrazol-4-yl)-7-(trifluoromethyl)[1,2,4]triazolo[1,5-c]quinazolin-5-yl]amino}azepan-2-one]",45.6,7.48e-09,–
"Cc1nn(C(C)C)cc1-c1nc2c3cccc(C(F)(F)F)c3nc(N[C@@H]3CCCCNC3=O)n2n1 [Example 748, (3R)-3-({2-[3-methyl-1-(propan-2-yl)-1H-pyrazol-4-yl]-7-(trifluoromethyl)[1,2,4]triazolo[1,5-c]quinazolin-5-yl}amino)azepan-2-one]",0.656,3.9e-10,–
"CCc1nn(C2CC2)cc1-c1nc2c3cccc(C(F)(F)F)c3nc(N[C@@H]3CCCCNC3=O)n2n1 [Example 749, (3R)-3-{[2-(1-cyclopropyl-3-ethyl-1H-pyrazol-4-yl)-7-(trifluoromethyl)[1,2,4]triazolo[1,5-c]quinazolin-5-yl]amino}azepan-2-one]",2.12,1.54e-09,–
"Cc1nn(C)c(C)c1-c1nc2c3cccc(C(F)(F)F)c3nc(N[C@@H]3CCCCNC3=O)n2n1 [Example 750, (3R)-3-{[7-(trifluoromethyl)-2-(1,3,5-trimethyl-1H-pyrazol-4-yl)[1,2,4]triazolo[1,5-c]quinazolin-5-yl]amino}azepan-2-one]",1.41,3.56e-09,–
"CCCCNC(=O)[C@@H](C)Nc1nc2c(C(F)(F)F)cccc2c2nc(-c3cnn(C)c3)nn12 [Example 751, N-butyl-N^2-[2-(1-methyl-1H-pyrazol-4-yl)-7-(trifluoromethyl)[1,2,4]triazolo[1,5-c]quinazolin-5-yl]-D-alaninamid]",54.7,1.47e-08,–
"COc1cccc2c1nc(N[C@@H]1CCCCNC1=O)n1nc(-c3cnn(C)c3)nc21 [Example 752, (3R)-3-{[7-methoxy-2-(1-methyl-1H-pyrazol-4-yl)[1,2,4]triazolo[1,5-c]quinazolin-5-yl]amino}azepan-2-one]",953,2.29e-07,–
"CCn1cc(-c2nc3c4cccc(OC)c4nc(N[C@@H]4CCCCNC4=O)n3n2)c(C)n1 [Example 753, (3R)-3-{[2-(1-ethyl-3-methyl-1H-pyrazol-4-yl)-7-methoxy[1,2,4]triazolo[1,5-c]quinazolin-5-yl]amino}azepan-2-one]",40.6,9.89e-09,–
"CCn1cc(-c2nc3c4cccc(OC)c4nc(N[C@@H]4CCCCNC4=O)n3n2)cn1 [Example 754, (3R)-3-{[2-(1-ethyl-1H-pyrazol-4-yl)-7-methoxy[1,2,4]triazolo[1,5-c]quinazolin-5-yl]amino}azepan-2-one]",292,7.97e-08,–
"COc1cccc2c1nc(N[C@@H]1CCCCNC1=O)n1nc(-c3cn(C)nn3)nc21 [Example 756, (3R)-3-{[7-methoxy-2-(1-methyl-1H-1,2,3-triazol-4-yl)[1,2,4]triazolo[1,5-c]quinazolin-5-yl]amino}azepan-2-one]",11700,4.49e-06,–
"COc1cccc2c1nc(N[C@@H]1CCCCNC1=O)n1nc(-c3cnn(C4CC4)c3)nc21 [Example 757, (3R)-3-{[2-(1-cyclopropyl-1H-pyrazol-4-yl)-7-methoxy[1,2,4]triazolo[1,5-c]quinazolin-5-yl]amino}azepan-2-one]",109,5.4e-08,–
"COc1cccc2c1nc(N[C@@H]1CCCCNC1=O)n1nc(-c3cnn(C4CCC4)c3)nc21 [Example 758, (3R)-3-{[2-(1-cyclobutyl-1H-pyrazol-4-yl)-7-methoxy[1,2,4]triazolo[1,5-c]quinazolin-5-yl]amino}azepan-2-one]",19.6,1.35e-08,–
"CC(C)n1cc(-c2nc3c4cccc(OC(F)(F)F)c4nc(N[C@@H]4CCCCNC4=O)n3n2)cn1 [Example 759, (3R)-3-({2-[1-(propan-2-yl)-1H-pyrazol-4-yl]-7-(trifluoromethoxy)[1,2,4]triazolo[1,5-c]quinazolin-5-yl}amino)azepan-2-one]",25,7.68e-09,–
"CC(C)n1cc(-c2nc3c4cccc(C#N)c4nc(N[C@@H]4CCCCNC4=O)n3n2)cn1 [Example 760, 5-{[(3R)-2-oxoazepan-3-yl]amino}-2-[1-(propan-2-yl)-1H-pyrazol-4-yl][1,2,4]triazolo[1,5-c]quinazoline-7-carbonitrile]",10,3.6e-09,–
"N#Cc1cccc2c1nc(N[C@@H]1CCCCNC1=O)n1nc(-c3cnn(C4CC4)c3)nc21 [Example 761, 2-(1-cyclopropyl-1H-pyrazol-4-yl)-5-{[(3R)-2-oxoazepan-3-yl]amino}[1,2,4]triazolo[1,5-c]quinazoline-7-carbonitrile]",9.93,3.11e-09,–
"N#Cc1cccc2c1nc(N[C@@H]1CCCCNC1=O)n1nc(-c3cnn(C4CCC4)c3)nc21 [Example 762, 2-(1-cyclobutyl-1H-pyrazol-4-yl)-5-{[(3R)-2-oxoazepan-3-yl]amino}[1,2,4]triazolo[1,5-c]quinazoline-7-carbonitrile]",–,2.44e-09,7.01
"CCn1cc(-c2nc3c4cccc(C#N)c4nc(N[C@@H]4CCCCNC4=O)n3n2)c(C)n1 [Example 763, 2-(1-ethyl-3-methyl-1H-pyrazol-4-yl)-5-{[(3R)-2-oxoazepan-3-yl]amino}[1,2,4]triazolo[1,5-c]quinazoline-7-carbonitrile]",3.96,1.41e-09,–
"N#Cc1cccc2c1nc(N[C@@H]1CCCCNC1=O)n1nc(-c3cnn(C(F)F)c3)nc21 [Example 764, 2-[1-(difluoromethyl)-1H-pyrazol-4-yl]-5-{[(3R)-2-oxoazepan-3-yl]amino}[1,2,4]triazolo[1,5-c]quinazoline-7-carbonitrile]",1.73,1.86e-09,–
"N#Cc1cccc2c1nc(N[C@@H]1CCCCNC1=O)n1nc(-c3cn[nH]c3)nc21 [Example 765, 5-{[(3R)-2-oxoazepan-3-yl]amino}-2-(1H-pyrazol-4-yl)[1,2,4]triazolo[1,5-c]quinazoline-7-carbonitrile]",–,7.79e-07,5850
"COc1ccc(-c2nc3c4cccc(SC)c4nc(N[C@@H]4CCCCNC4=O)n3n2)cc1 [Example 766, (3R)-3-{[2-(4-methoxyphenyl)-7-(methylsulfanyl)[1,2,4]triazolo[1,5-c]quinazolin-5-yl]amino}azepan-2-one]",47,1.64e-08,–
"COc1ccc(-c2nc3c4cccc(SC(C)C)c4nc(N[C@@H]4CCCCNC4=O)n3n2)cc1 [Example 767, (3R)-3-({2-(4-methoxyphenyl)-7-[(propan-2-yl)sulfanyl][1,2,4]triazolo[1,5-c]quinazolin-5-yl}amino)azepan-2-one]",47.6,2.69e-08,–
